Patent US20050112182A1, “Medical adhesive and medical covering agent using ultraviolet ray curable chitosan derivative” (priority 2003, published 2005)

Tested on: subcutaneous tissue
Details: dog, in vivo
Procedure: The adaptability to an organism was tested in respect of the medical adhesive according to one embodiment of the present invention.
Three incision each having a length of 2 cm in the direction of the body axis were formed on the back of a dog anesthetized with acepromazine (0.5 mg/Kg) and pentobarbital (25 mg/Kg), and each of the subcutaneous regions of the incision portions was enlarged with scissors so as to have a diameter of about 2 cm.
Three kinds of treatments (A), (B) and (C) given below were applied to each of the incision portions:
(A) Dimethyl sulfoxide used as a reference substance was injected in an amount of 0.5 ml, and irradiation with an ultraviolet ray was not performed.
(B) The adhesive was injected in an amount of 0.5 ml, and irradiation with an ultraviolet ray was not performed.
(C) The adhesive was injected in an amount of 0.5 ml, and irradiation with an ultraviolet ray was performed.
One week later, each portion was collected under a general anesthesia so as to carry out the histological analysis.

## C[S+](C)[O-] [(A) reference, Dimethyl sulfoxide]
  Adaptability to organism (recognition as foreign matter): recognized as a foreign matter within the organism
  Clinical inflammation reaction: not recognized
  Inflammation reaction, histological: prominent histologically
sc
  Clinical inflammation reaction (pain), Second day: ±
  Clinical inflammation reaction (pain), Third day: −
